1 compound from article PMC8880588, “In-Silico Screening of Novel Synthesized Thienopyrimidines Targeting Fms Related Receptor Tyrosine Kinase-3 and Their In-Vitro Biological Evaluation” (Pharmaceuticals, 2022) can be followed below.

For one data set, the system named is HT-29. The data set can be described thus: MTT dose-response anti-proliferative assay, HT-29. Type of data set: cell-based. To be noted: Homo sapiens; HT-29, MTT. An excerpt: (§1) Doxorubicin was used as a positive reference for the comparison of anticancer activities. The results are tabulated as IC50 value in the μM range, Table 1.
(§2) Three cancer cell lines were used in the antiproliferative activities experiments, namely, breast cancer cell line (MCF-7) and human hepatoma cell line (HepG-2), and Colorectal cell line (HT-29). The source of cell lines is the health sciences research center-core lab- at princess Nou-rah bint Abdulrahman university. All cell lines were maintained in their optimum media (RPMI-1640 or DMEM) supplemented with 10% fetal bovine serum, 100 U/mL penicillin, and 100 μg/mL streptomycin and incubated in a humidified atmosphere at 37 °C with 5% CO2.
(§3) The MTT assay was used to evaluate the anti-proliferative effect of the synthesized compounds against three human cancer cell lines hepatocellular carcinoma (HepG-2), breast cancer (MCF-7) and Colorectal carcinoma (HT-29). For the preliminary screening, HT-29 cells were seeded in 96-well plates (Thermo Scientific, Waltham, MA, USA)(10^3 cells/well) and incubated for 24 h before the treatment. Then, cells were treated with two concentrations (10 and 100 µM) of the tested compounds for 72 h. After the exposure, MTT assay protocol was performed as described. After evaluation of the preliminary anticancer activity, the promising synthesized compounds (8, 9a, 9b, 10a, and 11) were selected and examined against three cell lines (HepG-2, MCF-7, and HT-29). Cells were exposed to serial concentration ([…]) of the selected compounds and dose–response curves were determined to calculate their IC50 values.

Data set [1] has as its system normal colon epithelial cells (CCD 841 CoN). Description: Selectivity assay (MTT) on non-cancerous cells. Type of data set: cell-based. Here is the method: In an attempt to evaluate the anticancer activity of the compounds, selectivity assay was performed and compounds’ selectivity to malignant cells was determined, reflected by their selectivity index. The selectivity index (SI) was calculated by the ratio of the IC50 value of the selected compounds on normal colon epithelial cells (CCD 841 CoN) to the IC50 value of the compounds on cancer cells (HT-29). […] However, based on the designed strategy, this high selectivity towards cancer cells may be attributed to their ability to target oncogenic kinases.
Cells were plated in 96-well plates (10^3 cells/well), and after 24 h, the compounds in concentrations (0.1 to 100 μM) were incubated for 72 h. MTT procedure was then performed, the ratio of IC50 values of the compounds on non-cancerous cells (CCD 841 CoN) to the IC50 values of the compounds on cancer cells (HT-29) was determined as reported, [23, 24] using the following equation, SI = IC50 of normal cells/IC50 of cancer cells.

In another data set the test system is HepG-2. Description: MTT dose-response anti-proliferative assay, HepG-2. Type of data set: cell-based. Conditions: Homo sapiens, HepG2; HepG-2, MTT.
Excerpt: as §1, §2, §3

Another data set addresses T1, FLT3 (Homo sapiens, UniProt P36888).
T1 construct: purchased BD Biosciences, San Diego, CA, USA
T1 sequence (P36888 27-993): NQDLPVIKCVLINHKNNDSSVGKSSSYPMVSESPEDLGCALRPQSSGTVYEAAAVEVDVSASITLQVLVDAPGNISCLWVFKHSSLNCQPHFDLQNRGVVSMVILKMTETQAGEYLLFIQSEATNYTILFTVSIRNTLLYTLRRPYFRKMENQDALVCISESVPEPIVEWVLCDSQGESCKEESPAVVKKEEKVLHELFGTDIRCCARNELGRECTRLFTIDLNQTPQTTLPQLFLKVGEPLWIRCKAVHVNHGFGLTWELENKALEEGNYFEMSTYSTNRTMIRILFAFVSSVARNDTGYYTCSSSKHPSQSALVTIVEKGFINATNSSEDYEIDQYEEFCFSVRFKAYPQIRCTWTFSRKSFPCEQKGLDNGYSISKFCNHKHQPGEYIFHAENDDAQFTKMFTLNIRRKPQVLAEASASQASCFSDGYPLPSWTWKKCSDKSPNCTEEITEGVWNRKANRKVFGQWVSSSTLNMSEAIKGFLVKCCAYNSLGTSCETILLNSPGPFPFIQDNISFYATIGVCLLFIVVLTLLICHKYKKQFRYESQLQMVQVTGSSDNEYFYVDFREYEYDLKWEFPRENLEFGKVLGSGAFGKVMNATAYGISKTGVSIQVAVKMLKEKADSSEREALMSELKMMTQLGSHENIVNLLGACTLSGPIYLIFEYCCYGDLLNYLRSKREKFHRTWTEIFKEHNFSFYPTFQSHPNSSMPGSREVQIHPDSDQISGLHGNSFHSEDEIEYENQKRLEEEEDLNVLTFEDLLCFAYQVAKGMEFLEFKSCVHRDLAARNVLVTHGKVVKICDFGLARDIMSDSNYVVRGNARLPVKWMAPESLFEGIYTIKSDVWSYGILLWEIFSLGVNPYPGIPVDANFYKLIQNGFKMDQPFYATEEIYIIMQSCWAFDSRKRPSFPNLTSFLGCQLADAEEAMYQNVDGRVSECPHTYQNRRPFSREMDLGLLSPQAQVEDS
The data set can be described thus: In-vitro FLT3 kinase enzyme inhibition assay (FLT3 Kinase Assay Kit). Conditions: FLT3 1.5 ng/µL, 45 min, mean ± SD, n = 3; read-out: FLT3 kinase inhibitory activity IC50. Type of data set: biochemical. On the procedure: FLT3 Kinase Assay Kit (BD Biosciences, San Diego, CA, USA) was used to determine the inhibitory selectivity of the selected compounds towards the FLT3 enzyme. briefly, serial dilution of the selected compounds was incubated with FLT3 (1.5 ng/µL) for 45 min in a kinase reaction buffer. The FLT3 enzyme reaction was halted and measured by quantifying the amount of ADP produced during the enzyme reaction. Luminescence values were measured by a Varioskan™ LUX multimode microplate reader (Thermo Scientific, Waltham, MA, USA). IC50 was calculated with nonlinear regression compared with untreated reaction using Prism version 8.4.3 (GraphPad).

Data set [2] relates to protein kinases extracted from HT-29 cell line. The data set can be described thus: Kinase inhibition assessment, single dose, ADP-Glo assay. Type of data set: biochemical, human. To be noted: 20 μM single dose, total intracellular kinases from HT-29, 45 min. Here is the method:
Inhibitory activity against kinases of the selected compounds was examined using homogeneous protein kinases extracted from HT-29 cell line. The screening assay was performed in a single dose concentration (20 μM) by using ADP-Glo assay (Promega, Madison, WI, USA).
Briefly, protein kinases were added into a 96-well plate followed by addition of the synthesized compounds at the tested dose (20 μM). After 45 min of exposure, kinase activity was assessed using a luminescent luciferase/luciferin reaction. Luminescence quantification was measured by using a Varioskan™ LUX multimode microplate reader (Thermo Scientific, Waltham, MA, USA). Kinase inhibition effect of tested compounds was expressed as the percentage of remaining kinase activity relative to vehicle kinase reaction.
On the technique in general: ADP-Glo turns the ADP formed in a reaction into a luminescent signal.

The subject of another data set is HT-29 cells. Description: Preliminary antiproliferative assessment (MTT) at 10 and 100 μM. Type of data set: cell-based, human. Conditions: HT-29 cells, 10 and 100 μM, 72 h. Here is the method: All synthesized compounds were subjected to preliminary antiproliferative assessment that was performed on HT-29 cells using concentrations 10 and 100 μM of synthesized compounds for 72 h and the percentage of cell viability was then calculated. […] Thus, all five compounds were further studied by a detailed dose–response relationship against three different cancerous cell lines HT-29, Hep-G2 and MCF-7.
as §2, §3

A further data set relates to MCF-7. Description: MTT dose-response anti-proliferative assay, MCF-7. The format is cell-based, human.
Excerpt: as §1, §2, §3

Consider `CCOC(=O)c1c(NC(=S)Nc2ccccc2)sc2c1CCCC2` [Compound 11, Ethyl-2-(3-phenylthioureido)-5,6,7,8-tetrahydrobenzo[b]thiophene-3-carboxylate], for which the melting point (commonly the temperature, or range, at which the solid turns liquid) lay within 170 to 172 °C. For the same compound, inhibition in the data set on HT-29 was half-maximal at 1.78 ± 0.6 µM (IC50). Further, in data set [1] (Homo sapiens, CCD 841 CoN, 72 h, MTT, read-out: IC50 of Non-Cancer Cells CCD 841), the IC50 (in general, the point on the concentration scale where inhibition reaches its midpoint) was determined as 178 ± 20.4 µM. Further, the “Selectivity Index (SI) (IC50 of CCD 841/IC50 of HT29)” value in data set [1] (ratio normal CCD 841 / cancer HT-29, 72 h) turned out to be 99.7. For the same compound, the 50% inhibitory concentration (IC50) in the data set with HepG-2 came out at 16.4 ± 5.7 µM. Moreover, the 50% inhibitory concentration (IC50) at FLT3 amounted to 40 ± 5.5 µM. The compound further registered a kinase inhibition in data set [2] of 79.2%. The “growth inhibitory activities against HT-29 cells (preliminary assay)” value in the data set on HT-29 cells is reported as “moderate to significant”. The compound further gave a half-inhibitory concentration (IC50) in the data set on MCF-7 (Homo sapiens, MCF7, MCF-7, MTT) of 7.53 ± 0.07 µM. This compound also gave an IC50 in the data set with MCF-7 (MCF-7, MTT) of 7.537 ± 0.07 µM.
